Data as given in patent publication US11938208B2, “Antimicrobial mixture” (SYMRISE AG, priority 2019, dated 2024).

How the values were obtained:
E.coli (ATCC #8739) = test: Preservative efficacy test (challenge test) in an anionic emulsion of pH 5.8; assay type: cell-based; details: for LR (log reduction), day 2 / LR (log reduction), day 7 / LR (log reduction), day 14 / LR (log reduction), day 21 / LR (log reduction), day 28: log 10 reduction vs initial inoculum; for surviving microorganisms (total aerobic plate count), day 2: day 2 after inoculation; for surviving microorganisms (total aerobic plate count), day 2 / surviving microorganisms (total aerobic plate count), day 7 / surviving microorganisms (total aerobic plate count), day 14 / surviving microorganisms (total aerobic plate count), day 21 / surviving microorganisms (total aerobic plate count), day 28: storage 22.5±2.5° C., TNTC = too numerous to count; for surviving microorganisms (total aerobic plate count), day 7: day 7 after inoculation; for surviving microorganisms (total aerobic plate count), day 14: day 14 after inoculation; for surviving microorganisms (total aerobic plate count), day 21: day 21 after inoculation; for surviving microorganisms (total aerobic plate count), day 28: day 28 after inoculation
Procedure: This test is a reference method that is used to evaluate the preservative efficacy of a test formulation (in the present case an anionic emulsion of pH 5.8 comprising various fatty esters and fatty alcohols as oil bodies and glyceryl stearate citrate as the emulsifier. The formula was inoculated with known populations of microorganisms (0.2 ml of calibrated inoculums into 20 g of the test formulation) and the number of surviving microorganisms was calculated at defined intervals during a 28-day period. The inoculated test products were stored at 22.5±2.5° C. for the 28-day duration. The surviving microorganisms were enumerated via the total aerobic plate count method. For each time point, the log 10 reductions were calculated and were compared to the passing criteria.

mold = details: moist alfalfa hay; cited from earlier work
[1] = constituents of Tagetes mendocina; cited from earlier work
[2] = administered intraperitoneally; cited from earlier work

SMILES | LR (log reduction), day 2 (E.coli (ATCC #8739)) | surviving microorganisms (total aerobic plate count), day 2 (E.coli (ATCC #8739)) | LR (log reduction), day 7 (E.coli (ATCC #8739)) | surviving microorganisms (total aerobic plate count), day 7 (E.coli (ATCC #8739)) | LR (log reduction), day 14 (E.coli (ATCC #8739)) | surviving microorganisms (total aerobic plate count), day 14 (E.coli (ATCC #8739)) | LR (log reduction), day 21 (E.coli (ATCC #8739)) | surviving microorganisms (total aerobic plate count), day 21 (E.coli (ATCC #8739)) | LR (log reduction), day 28 (E.coli (ATCC #8739)) | surviving microorganisms (total aerobic plate count), day 28 (E.coli (ATCC #8739)) | LR (log reduction), day 14 (E.coli (ATCC #8739); listed as 0.35% SymSave H) | LR (log reduction), day 21 (E.coli (ATCC #8739); listed as 0.35% SymSave H) | surviving microorganisms (total aerobic plate count), day 21 (E.coli (ATCC #8739); listed as 0.35% SymSave H) | LR (log reduction), day 28 (E.coli (ATCC #8739); listed as 0.35% SymSave H) | surviving microorganisms (total aerobic plate count), day 28 (E.coli (ATCC #8739); listed as 0.35% SymSave H) | prevention of mold growth (mold) | antioxidant activity [1] | reduction of subcutaneous inflammation [2]
CC(C)=CCC[C@](C)(O)[C@@H]1CC=C(C)CC1 [0.6% D100, Bisabolol] | LR 0 | TNTC | LR 0 | TNTC | LR 0 | TNTC | LR 0 | TNTC | LR 0 | TNTC |  |  |  |  |  |  |  | 
CC(=O)c1ccc(O)cc1 [0.25% SymSave H, 4-hydroxyacetophenone] | LR 0 | TNTC | LR 0 | TNTC | LR 0 | TNTC | LR 3.94 | 6.4 × 10^2 | LR 5.35 | 2.5 × 10^1 | LR 2.49 | LR 6 | <10 | LR 6 | <10 | not prevent mold growth | one of the active constituents | reducing subcuteaneous inflammation
